Experiment [1] deals with LTK (Homo sapiens, UniProt P29376). In words: biochemical. Further details: Invitrogen kinase panel: Z'Lyte activity (ATP at Km) or LanthaScreen competitive ATP-site binding, percent inhibition. The source says: (§1) We set out to identify allosteric activators of IRE1 RNase by screening internal compound libraries for binding to the kinase, using a published ATP-competitive TR-FRET assay. We then tested kinase binders to assess RNase modulation in an IRE1-specific kinetic RNA cleavage assay that uses the cytoplasmic construct IRE1-LKR (Q470-L977) (Supplementary Fig. 1a). […] Next, we tested these compounds in KMS-11 multiple myeloma cells, known to express functional IRE1 and strongly depend on the IRE1 pathway due to hyper-production of immunoglobulins in the ER[31]. We measured mRNA levels of XBP1s and the well-established RIDD target DGAT2[22] (Fig. 1c and Supplementary Fig. 1c, respectively) using a branched DNA (bDNA) assay. […] Importantly, neither G-9807 nor G-1749 inhibit PERK (Supplementary Table 1).

Experiment [2] deals with STK33 (Homo sapiens, UniProt Q9BYT3). Nature of the experiment: biochemical. Set-up: Invitrogen kinase panel: Z'Lyte activity (ATP at Km) or LanthaScreen competitive ATP-site binding, percent inhibition.
Excerpt: as §1

Experiment [3] addresses HIPK1 (Homo sapiens, UniProt Q86Z02). Nature of the experiment: biochemical. Further details: Invitrogen kinase panel: Z'Lyte activity (ATP at Km) or LanthaScreen competitive ATP-site binding, percent inhibition.
Experiment [4] concerns the target T1, CaMKII_beta (Homo sapiens, UniProt Q13554).
T1 construct: gene CAMK2B
In words: biochemical. Set-up: Invitrogen kinase panel: Z'Lyte activity (ATP at Km) or LanthaScreen competitive ATP-site binding, percent inhibition.

In experiment [5] the target is ACVR1B (Homo sapiens, UniProt P36896). Nature of the experiment: biochemical. Set-up: Invitrogen kinase panel: Z'Lyte activity (ATP at Km) or LanthaScreen competitive ATP-site binding, percent inhibition.
Sequence of ACVR1B (P36896 whole entry): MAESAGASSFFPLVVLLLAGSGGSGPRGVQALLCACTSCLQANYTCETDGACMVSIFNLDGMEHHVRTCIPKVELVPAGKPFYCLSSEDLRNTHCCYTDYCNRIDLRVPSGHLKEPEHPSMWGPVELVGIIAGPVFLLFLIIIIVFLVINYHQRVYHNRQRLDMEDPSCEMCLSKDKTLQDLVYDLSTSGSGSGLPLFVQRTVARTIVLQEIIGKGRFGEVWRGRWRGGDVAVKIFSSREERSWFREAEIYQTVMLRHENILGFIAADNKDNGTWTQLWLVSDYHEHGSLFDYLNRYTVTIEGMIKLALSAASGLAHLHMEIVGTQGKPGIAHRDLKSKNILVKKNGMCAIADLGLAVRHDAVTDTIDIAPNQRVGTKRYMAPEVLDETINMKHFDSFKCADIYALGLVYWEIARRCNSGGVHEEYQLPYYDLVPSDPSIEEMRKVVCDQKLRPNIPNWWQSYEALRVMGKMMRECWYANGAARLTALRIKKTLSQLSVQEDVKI
In experiment [6] the target is mTOR (Homo sapiens, UniProt P42345). In words: biochemical. Further details: Invitrogen kinase panel: Z'Lyte activity (ATP at Km) or LanthaScreen competitive ATP-site binding, percent inhibition.
Experiment [7] deals with ERN1 (Homo sapiens, UniProt O75460). Nature of the experiment: biochemical. Set-up: Invitrogen kinase panel: Z'Lyte activity (ATP at Km) or LanthaScreen competitive ATP-site binding, percent inhibition.
Experiment [8] concerns the target TGFBR1 (Homo sapiens, UniProt P36897). In words: biochemical. Set-up: Invitrogen kinase panel: Z'Lyte activity (ATP at Km) or LanthaScreen competitive ATP-site binding, percent inhibition.
The target of experiment [9] is T2, MLK2 (Homo sapiens, UniProt Q02779).
T2 construct: gene MAP3K10
T2 sequence (Q02779 whole entry): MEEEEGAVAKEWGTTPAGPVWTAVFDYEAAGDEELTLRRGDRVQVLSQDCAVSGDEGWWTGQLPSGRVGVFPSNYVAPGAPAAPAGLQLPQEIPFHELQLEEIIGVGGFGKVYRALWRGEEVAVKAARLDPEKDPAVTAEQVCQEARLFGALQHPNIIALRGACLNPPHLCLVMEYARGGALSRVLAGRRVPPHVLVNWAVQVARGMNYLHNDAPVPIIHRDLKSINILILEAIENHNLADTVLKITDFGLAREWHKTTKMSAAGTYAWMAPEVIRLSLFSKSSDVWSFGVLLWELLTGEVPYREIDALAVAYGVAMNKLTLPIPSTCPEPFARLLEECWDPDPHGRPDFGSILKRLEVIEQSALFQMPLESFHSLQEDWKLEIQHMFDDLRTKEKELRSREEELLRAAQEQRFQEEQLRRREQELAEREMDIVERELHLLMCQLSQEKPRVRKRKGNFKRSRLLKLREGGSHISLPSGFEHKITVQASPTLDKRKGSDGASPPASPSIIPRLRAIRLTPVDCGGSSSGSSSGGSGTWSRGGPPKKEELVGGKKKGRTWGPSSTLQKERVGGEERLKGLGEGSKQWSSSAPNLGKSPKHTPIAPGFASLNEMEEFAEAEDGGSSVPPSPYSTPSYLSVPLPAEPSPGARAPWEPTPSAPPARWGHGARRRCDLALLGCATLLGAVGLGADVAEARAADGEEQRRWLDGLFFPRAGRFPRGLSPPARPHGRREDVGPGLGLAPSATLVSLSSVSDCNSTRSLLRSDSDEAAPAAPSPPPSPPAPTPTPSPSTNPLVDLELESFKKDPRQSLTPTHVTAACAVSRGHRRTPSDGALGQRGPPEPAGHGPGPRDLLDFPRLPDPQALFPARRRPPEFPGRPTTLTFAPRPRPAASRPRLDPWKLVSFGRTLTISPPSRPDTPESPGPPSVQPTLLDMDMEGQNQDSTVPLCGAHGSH
Nature of the experiment: biochemical. Further details: Invitrogen kinase panel: Z'Lyte activity (ATP at Km) or LanthaScreen competitive ATP-site binding, percent inhibition.

Experiment [10] concerns the target CDK7/cyclinH (Homo sapiens, UniProt P50613). In words: biochemical. Set-up: Invitrogen kinase panel: Z'Lyte activity (ATP at Km) or LanthaScreen competitive ATP-site binding, percent inhibition.
Experiment [11] concerns the target T3, CaMKI (Homo sapiens, UniProt Q14012).
T3 construct: gene CAMK1
Nature of the experiment: biochemical. Further details: Invitrogen kinase panel: Z'Lyte activity (ATP at Km) or LanthaScreen competitive ATP-site binding, percent inhibition.

Experiment [12] concerns the target MARK1 (Homo sapiens, UniProt Q9P0L2). In words: biochemical. Further details: Invitrogen kinase panel: Z'Lyte activity (ATP at Km) or LanthaScreen competitive ATP-site binding, percent inhibition.
For experiment [13], the target named is Blk (Homo sapiens, UniProt P51451). In words: biochemical. Further details: Invitrogen kinase panel: Z'Lyte activity (ATP at Km) or LanthaScreen competitive ATP-site binding, percent inhibition.
Sequence of Blk (P51451 whole entry): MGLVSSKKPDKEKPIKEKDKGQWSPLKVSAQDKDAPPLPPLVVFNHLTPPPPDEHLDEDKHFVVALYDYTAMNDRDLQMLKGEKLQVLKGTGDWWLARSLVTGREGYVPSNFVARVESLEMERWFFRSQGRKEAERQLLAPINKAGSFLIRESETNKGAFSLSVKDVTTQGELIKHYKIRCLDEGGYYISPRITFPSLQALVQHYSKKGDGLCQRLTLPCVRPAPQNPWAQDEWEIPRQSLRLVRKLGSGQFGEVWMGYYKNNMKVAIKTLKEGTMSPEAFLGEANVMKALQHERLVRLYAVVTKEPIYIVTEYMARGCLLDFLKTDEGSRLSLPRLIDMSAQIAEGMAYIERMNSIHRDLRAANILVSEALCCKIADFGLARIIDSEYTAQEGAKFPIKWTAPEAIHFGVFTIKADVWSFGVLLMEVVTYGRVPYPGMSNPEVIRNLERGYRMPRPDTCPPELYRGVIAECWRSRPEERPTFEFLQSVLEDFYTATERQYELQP
For experiment [14], the target named is T4, PI3K-A (Homo sapiens, UniProt P42336).
T4 construct: gene PIK3CA
Nature of the experiment: biochemical. Set-up: Invitrogen kinase panel: Z'Lyte activity (ATP at Km) or LanthaScreen competitive ATP-site binding, percent inhibition.

Experiment [15] deals with T5, FAK (Homo sapiens, UniProt Q05397).
T5 construct: gene PTK2
In words: biochemical. Set-up: Invitrogen kinase panel: Z'Lyte activity (ATP at Km) or LanthaScreen competitive ATP-site binding, percent inhibition.

In experiment [16] the target is WNK2 (Homo sapiens, UniProt Q9Y3S1). Nature of the experiment: biochemical. Further details: Invitrogen kinase panel: Z'Lyte activity (ATP at Km) or LanthaScreen competitive ATP-site binding, percent inhibition.
The target in experiment [17] is FGFR4 (Homo sapiens, UniProt P22455). Nature of the experiment: biochemical. Further details: Invitrogen kinase panel: Z'Lyte activity (ATP at Km) or LanthaScreen competitive ATP-site binding, percent inhibition.
Sequence of FGFR4 (P22455 whole entry): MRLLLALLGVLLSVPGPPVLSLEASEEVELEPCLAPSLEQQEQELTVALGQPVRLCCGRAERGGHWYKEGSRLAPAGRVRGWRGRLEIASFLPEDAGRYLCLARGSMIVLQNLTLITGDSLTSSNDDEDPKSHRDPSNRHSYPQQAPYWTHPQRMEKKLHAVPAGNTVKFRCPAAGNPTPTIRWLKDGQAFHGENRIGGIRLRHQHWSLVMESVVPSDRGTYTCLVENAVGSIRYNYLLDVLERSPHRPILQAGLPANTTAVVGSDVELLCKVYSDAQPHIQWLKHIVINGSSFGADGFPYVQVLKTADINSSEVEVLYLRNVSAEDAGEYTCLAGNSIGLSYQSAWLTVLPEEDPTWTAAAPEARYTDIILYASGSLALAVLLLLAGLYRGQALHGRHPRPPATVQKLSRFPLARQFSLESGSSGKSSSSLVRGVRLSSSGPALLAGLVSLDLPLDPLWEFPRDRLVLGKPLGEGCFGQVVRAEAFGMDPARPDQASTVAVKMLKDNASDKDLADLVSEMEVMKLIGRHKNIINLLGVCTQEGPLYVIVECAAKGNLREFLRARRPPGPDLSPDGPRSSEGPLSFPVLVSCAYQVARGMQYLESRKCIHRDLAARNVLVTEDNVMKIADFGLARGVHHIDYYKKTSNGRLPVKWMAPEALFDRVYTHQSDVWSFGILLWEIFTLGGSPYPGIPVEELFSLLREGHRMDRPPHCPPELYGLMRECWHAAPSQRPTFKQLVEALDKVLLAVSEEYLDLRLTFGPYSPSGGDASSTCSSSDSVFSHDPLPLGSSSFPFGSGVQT
Experiment [18] has as its target SPHK1 (Homo sapiens, UniProt Q9NYA1). Nature of the experiment: biochemical. Further details: Invitrogen kinase panel: Z'Lyte activity (ATP at Km) or LanthaScreen competitive ATP-site binding, percent inhibition.
In experiment [19] the target is T6, PKC_iota (Homo sapiens, UniProt P41743).
T6 construct: gene PRKCI
Nature of the experiment: biochemical. Further details: Invitrogen kinase panel: Z'Lyte activity (ATP at Km) or LanthaScreen competitive ATP-site binding, percent inhibition.

Experiment [20] has as its target T7, PDGFR_beta (Homo sapiens, UniProt P09619).
T7 construct: gene PDGFRB
In words: biochemical. Set-up: Invitrogen kinase panel: Z'Lyte activity (ATP at Km) or LanthaScreen competitive ATP-site binding, percent inhibition.

For experiment [21], the target named is T8, Cot (Homo sapiens, UniProt P41279).
T8 construct: gene MAP3K8
In words: biochemical. Further details: Invitrogen kinase panel: Z'Lyte activity (ATP at Km) or LanthaScreen competitive ATP-site binding, percent inhibition.

The target of experiment [22] is Inositol-Requiring Enzyme 1 (IRE1) (Homo sapiens, UniProt O75460). In words: co-crystal structure ([…] Å); also TR-FRET kinase binding, HX-MS, SV-AUC, RNase activation. Set-up: gene ERN1; unphosphorylated IRE1 cytoplasmic kinase-RNase (IRE1-0P). In general terms: Time-resolved FRET reads energy transfer from a long-lived donor to a nearby acceptor.

Usually inhibition stands for the change of the read-out against control, counted positive when it falls.

Sequence of TGFBR1 (P36897 whole entry): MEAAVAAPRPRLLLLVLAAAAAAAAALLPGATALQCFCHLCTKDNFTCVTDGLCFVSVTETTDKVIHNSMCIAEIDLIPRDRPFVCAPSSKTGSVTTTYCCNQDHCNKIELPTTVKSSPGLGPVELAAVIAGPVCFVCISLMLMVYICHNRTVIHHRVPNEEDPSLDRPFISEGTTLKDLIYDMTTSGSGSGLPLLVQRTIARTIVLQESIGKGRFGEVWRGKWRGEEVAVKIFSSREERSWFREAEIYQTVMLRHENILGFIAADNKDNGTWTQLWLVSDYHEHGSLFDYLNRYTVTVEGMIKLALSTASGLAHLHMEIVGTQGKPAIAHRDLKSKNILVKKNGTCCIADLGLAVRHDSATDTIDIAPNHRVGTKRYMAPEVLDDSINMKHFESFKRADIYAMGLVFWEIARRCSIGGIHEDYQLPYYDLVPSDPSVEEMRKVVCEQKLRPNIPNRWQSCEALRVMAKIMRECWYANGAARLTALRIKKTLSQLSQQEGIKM
Sequence of SPHK1 (Q9NYA1 whole entry): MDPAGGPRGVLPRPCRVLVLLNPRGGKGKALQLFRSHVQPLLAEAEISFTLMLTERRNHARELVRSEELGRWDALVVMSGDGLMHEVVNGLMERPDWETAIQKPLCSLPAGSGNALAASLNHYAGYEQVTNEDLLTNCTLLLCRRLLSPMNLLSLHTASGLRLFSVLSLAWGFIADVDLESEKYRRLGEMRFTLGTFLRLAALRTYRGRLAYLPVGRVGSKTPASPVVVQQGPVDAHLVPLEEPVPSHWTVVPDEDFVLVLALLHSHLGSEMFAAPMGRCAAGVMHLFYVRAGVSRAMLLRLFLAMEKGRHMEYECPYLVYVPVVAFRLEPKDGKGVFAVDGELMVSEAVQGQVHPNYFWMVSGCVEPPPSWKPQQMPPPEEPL
Sequence of HIPK1 (Q86Z02 whole entry): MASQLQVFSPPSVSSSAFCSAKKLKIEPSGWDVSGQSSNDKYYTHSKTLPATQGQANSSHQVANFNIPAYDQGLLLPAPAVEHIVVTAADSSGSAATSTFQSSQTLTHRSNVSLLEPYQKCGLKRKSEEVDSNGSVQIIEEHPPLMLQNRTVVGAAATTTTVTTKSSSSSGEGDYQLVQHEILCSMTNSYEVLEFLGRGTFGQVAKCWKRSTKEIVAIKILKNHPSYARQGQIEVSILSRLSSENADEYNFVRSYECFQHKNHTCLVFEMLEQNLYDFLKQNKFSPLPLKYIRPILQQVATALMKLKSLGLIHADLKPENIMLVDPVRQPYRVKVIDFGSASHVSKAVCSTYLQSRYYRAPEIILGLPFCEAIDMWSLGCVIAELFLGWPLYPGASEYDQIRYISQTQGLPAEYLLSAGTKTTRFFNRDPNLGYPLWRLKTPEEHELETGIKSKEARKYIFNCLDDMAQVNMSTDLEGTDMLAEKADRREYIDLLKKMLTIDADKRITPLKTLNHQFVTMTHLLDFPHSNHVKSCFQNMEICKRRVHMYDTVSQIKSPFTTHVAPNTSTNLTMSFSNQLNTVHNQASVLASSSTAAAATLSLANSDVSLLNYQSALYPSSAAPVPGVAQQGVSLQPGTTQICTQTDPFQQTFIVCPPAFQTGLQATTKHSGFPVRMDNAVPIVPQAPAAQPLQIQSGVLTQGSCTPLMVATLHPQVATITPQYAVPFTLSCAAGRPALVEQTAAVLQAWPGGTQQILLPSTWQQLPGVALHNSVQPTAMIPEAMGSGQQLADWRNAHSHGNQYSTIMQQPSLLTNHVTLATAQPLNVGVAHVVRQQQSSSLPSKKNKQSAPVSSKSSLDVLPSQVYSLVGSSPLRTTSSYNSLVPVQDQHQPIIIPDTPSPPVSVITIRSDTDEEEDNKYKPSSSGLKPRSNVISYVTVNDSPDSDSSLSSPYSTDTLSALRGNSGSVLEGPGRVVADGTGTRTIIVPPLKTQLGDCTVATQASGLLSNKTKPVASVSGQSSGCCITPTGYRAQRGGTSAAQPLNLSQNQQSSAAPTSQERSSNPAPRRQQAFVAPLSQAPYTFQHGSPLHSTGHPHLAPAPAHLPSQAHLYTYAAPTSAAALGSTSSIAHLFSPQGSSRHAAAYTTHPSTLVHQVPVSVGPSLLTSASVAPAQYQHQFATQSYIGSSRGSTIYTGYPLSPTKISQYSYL

Take `CC#CC(=O)Nc1cccc2c(Oc3ncccc3-c3ccnc(N[C@H]4CCCNC4)n3)c(C)ccc12` [G-7658]: the inhibition at 1 µM is -4.5% in experiment [1]; -3.5% in experiment [2]; 0.5% in experiment [3]; 0.5% in experiment [4]; -0.5% in [5]; 7% in experiment [6]. The inhibition at 1 µM in [7] is 106%; in [8], 7.5%; in experiment [9], 4%; in experiment [10] it was 7.5%; in experiment [11], -2.5%; in [12], 9%. Further, the inhibition at 1 µM in [13] was 7.5%; in experiment [14] it was -18.5%; in [15], 1.5%; in experiment [16], -2.5%; in experiment [17], 9%; in experiment [18], -5%.
Regarding `CCOC(=O)Nc1cccc2c(Oc3ncccc3-c3ccnc(N[C@H]4CCCNC4)n3)c(C)ccc12` [G-1749], the inhibition at 1 µM is 1% in experiment [1]; -4% in experiment [2]; 1% in experiment [3]; -2% in [4]; 3% in [5]; 5% in experiment [6]. In addition, the inhibition at 1 µM was 99.5% in [7]; 5.5% in [8]; 0.5% in experiment [9]; 4.5% in [10]; -10% in experiment [11]; 10% in experiment [12]. For the same molecule, the inhibition at 1 µM in experiment [13] was 10%; in [14], 10%; in [15], 1.5%; in experiment [16], -1%; in experiment [17] it was 7.5%; in experiment [18], 14.5%.
`O=c1cc(-c2n[nH]c3ncc(-c4c(F)cccc4F)cc23)nc(N2CCC(O)CC2)[nH]1` [G-9807]: the inhibition at 1 µM in [19] worked out at 46.6%; in experiment [20], 80.4%; in [21] it was 94%. Besides, the IC50 result in experiment [22] was “low-nanomolar”.
